Consider 13 molecules from PubChem BioAssay (NCI).

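48-hour exposure; five concentrations; linearly interpolated endpoints. The concentration for 50% growth inhibition is given as GI50. TGI marks complete inhibition of growth.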

Test systems include SK-MEL-5 melanoma; ACHN renal; A549 NSCLC; UACC-62 melanoma; HL-60(TB) leukemia; NCI-H23 lung; IGROV1 ovarian; SK-MEL-28 melanoma; HOP-92 NSCLC; UO-31 renal.
Common to all, as to test: NCI anticancer screen, dose series, 48 h

As to `O=C(c1ccccc1)c1c(CC(O)c2ccccc2)n(C(=O)c2ccccc2)c2ccccc12` (stereo not given), the TGI in the test on SK-MEL-5 melanoma is greater than 100 µM; in the test with ACHN renal it was greater than 100 µM; in the test on A549 NSCLC, greater than 100 µM; in the test on UACC-62 melanoma, greater than 100 µM; in the test with HL-60(TB) leukemia, greater than 100 µM; in the test with NCI-H23 lung, 69.5 µM. In addition, the TGI is greater than 100 µM with IGROV1 ovarian, greater than 100 µM in the test with SK-MEL-28 melanoma, 98.9 µM in the test with HOP-92 NSCLC and 60.6 µM in the test with UO-31 renal.

Turning to `CCOC(=O)NC(=O)c1cn(CCN2CCNCC2)c(=O)[nH]c1=O`, the TGI in the test with SK-MEL-5 melanoma, in the test with ACHN renal, in the test with A549 NSCLC, with UACC-62 melanoma, in the test with HL-60(TB) leukemia and in the test with NCI-H23 lung was greater than 100 µM throughout. Further, the TGI in the test on IGROV1 ovarian, in the test on SK-MEL-28 melanoma and in the test on HOP-92 NSCLC was greater than 100 µM in each case.

Regarding `C1CCN2CC3CCCN4CCCC(C2C1)C34` (stereo not given), the TGI in the test with SK-MEL-5 melanoma, in the test with ACHN renal, in the test with A549 NSCLC, in the test with UACC-62 melanoma, in the test on HL-60(TB) leukemia and in the test on NCI-H23 lung was greater than 100 µM each time. In addition, the TGI in the test with IGROV1 ovarian, in the test on SK-MEL-28 melanoma and in the test with HOP-92 NSCLC was greater than 100 µM in each case.

Regarding `Nc1ccc2c(c1)Oc1c(F)c(F)cc3c(=O)c(C(=O)O)cn-2c13`, the TGI with SK-MEL-5 melanoma is 47.9 µM; in the test on A549 NSCLC, greater than 100 µM; in the test on UACC-62 melanoma, greater than 100 µM; with HL-60(TB) leukemia it was greater than 100 µM; in the test on NCI-H23 lung, greater than 100 µM; with IGROV1 ovarian, greater than 100 µM. The values for the TGI with SK-MEL-28 melanoma, in the test on HOP-92 NSCLC and with UO-31 renal were greater than 100 µM, 96.9 µM and 93.7 µM, respectively.

Consider `COc1cc(CC(C(=O)O)C(=O)O)c(OC)cc1CC(C(=O)O)C(=O)O`, for which the TGI with SK-MEL-5 melanoma, in the test with A549 NSCLC, with UACC-62 melanoma, in the test on HL-60(TB) leukemia, in the test on NCI-H23 lung and in the test on IGROV1 ovarian was greater than 100 µM throughout. In addition, the TGI in the test with HOP-92 NSCLC and with UO-31 renal was greater than 100 µM in each case.

With `COc1ccc(-c2nc(-c3cnccn3)n(COCCO)n2)cc1`, the TGI in the test on SK-MEL-5 melanoma, in the test with A549 NSCLC, with UACC-62 melanoma, in the test on HL-60(TB) leukemia, in the test on NCI-H23 lung and with IGROV1 ovarian was greater than 100 µM in each case. For the same molecule, the TGI with SK-MEL-28 melanoma, with HOP-92 NSCLC and with UO-31 renal was greater than 100 µM each time.

As for `CCCCCCCCCCCCCC(=O)OCC1OC(n2cc(F)c(=O)[nH]c2=O)C(N)C(OC(=O)CCCCCCCCCCCCC)C1O` (stereo not given), the TGI in the test with SK-MEL-5 melanoma, in the test on ACHN renal, with A549 NSCLC, in the test on UACC-62 melanoma, in the test on HL-60(TB) leukemia and in the test on NCI-H23 lung was greater than 100 µM throughout. The TGI in the test on SK-MEL-28 melanoma, in the test with HOP-92 NSCLC and in the test on UO-31 renal was greater than 100 µM each time.

In the case of `OC1CCC[C@@H]1Sc1ccccc1` (stereo not given in full), the TGI in the test on SK-MEL-5 melanoma, in the test with ACHN renal, in the test with A549 NSCLC, in the test on UACC-62 melanoma, in the test on HL-60(TB) leukemia and in the test with NCI-H23 lung was greater than 100 µM each time. Besides, the TGI in the test on SK-MEL-28 melanoma, in the test with HOP-92 NSCLC and with UO-31 renal was greater than 100 µM in each case.

Regarding `COc1ccc2c(c1)C(=O)c1c-2n(CCCN)c(=O)c2cc(OC)c(OC)cc12`, the GI50 was 0.283 µM in the test with SK-MEL-5 melanoma; 0.0397 µM in the test with ACHN renal; 0.0267 µM in the test with A549 NSCLC; 0.299 µM in the test with UACC-62 melanoma; less than 0.0245 µM in the test with HL-60(TB) leukemia; 0.154 µM in the test with IGROV1 ovarian. The GI50 in the test on SK-MEL-28 melanoma was 8.19 µM; with HOP-92 NSCLC, 0.424 µM; with UO-31 renal, 1.19 µM. For the same molecule, the TGI in the test on SK-MEL-5 melanoma stood at 1.93 µM; in the test on ACHN renal, 1.14 µM; in the test with A549 NSCLC, 0.182 µM; in the test on UACC-62 melanoma, 1.93 µM; in the test with IGROV1 ovarian it was 0.976 µM; in the test with SK-MEL-28 melanoma, 29.1 µM. Also, the TGI in the test with HOP-92 NSCLC was determined as 2.34 µM; in the test on UO-31 renal, 2.72 µM.

As to `COC(=O)C1=C(O)[C@H](C(=O)OC)[C@]2(O)[C@@H](C(=O)OC)[C@H]1C[C@@H](c1ccc(OC(=O)/C=C/c3ccco3)cc1)[C@@H]2C(=O)OC`, the GI50 with SK-MEL-5 melanoma is 27.1 µM; in the test on ACHN renal, 14.4 µM; with A549 NSCLC, 30.5 µM; in the test on UACC-62 melanoma, 4.09 µM; with HL-60(TB) leukemia it was 13.9 µM; in the test on SK-MEL-28 melanoma, 29.1 µM. The GI50 in the test on HOP-92 NSCLC was 18.1 µM. The TGI in the test on SK-MEL-5 melanoma was 94.4 µM; with ACHN renal it was 28.7 µM; with A549 NSCLC, greater than 100 µM; with UACC-62 melanoma it was 18.9 µM; with HL-60(TB) leukemia, 75.1 µM; in the test with SK-MEL-28 melanoma it was greater than 100 µM. Moreover, the TGI in the test with HOP-92 NSCLC amounted to 48.3 µM.

With `Cn1nc(-c2ccccc2)c(C(=O)/C=C/c2ccc(F)cc2)c(N2CCOCC2)c1=O`, the TGI with SK-MEL-5 melanoma worked out at 29.3 µM; with ACHN renal it was 42.1 µM; in the test with A549 NSCLC, 54.3 µM; in the test with UACC-62 melanoma it was 43 µM; in the test on HL-60(TB) leukemia, 40.5 µM; in the test with IGROV1 ovarian, 39.3 µM. Besides, the TGI with SK-MEL-28 melanoma worked out at 31.5 µM; with HOP-92 NSCLC, 36.4 µM; in the test on UO-31 renal it was 25.6 µM.

Regarding `CC(=O)O/N=C(Cl)/C(Cl)=N/OC(C)=O`, the TGI in the test with ACHN renal, in the test on A549 NSCLC, with UACC-62 melanoma, with HL-60(TB) leukemia, with NCI-H23 lung and in the test on IGROV1 ovarian was greater than 100 µM throughout. Further, the TGI with SK-MEL-28 melanoma, with HOP-92 NSCLC and with UO-31 renal was greater than 100 µM each time.

With `C=C1NC(=O)C(CC(C(=O)C(=O)Nc2c(C)cccc2C(C)(C)C)C(=O)c2ccc3ccccc3c2)C(=O)N1` (stereo not given), the TGI with SK-MEL-5 melanoma, in the test on ACHN renal, in the test with A549 NSCLC, in the test with UACC-62 melanoma, with HL-60(TB) leukemia and with NCI-H23 lung was greater than 100 µM throughout. The TGI in the test on SK-MEL-28 melanoma, in the test with HOP-92 NSCLC and in the test on UO-31 renal was greater than 100 µM in each case.
